From ChEMBL document CHEMBL3259622, “Enhancing a CH-π Interaction to Increase the Affinity for 5-HT1A Receptors” (ACS Med Chem Lett, 2014)
Activity calls are given as the source filed them. The rule behind the calls is not given here.

Assays:
[1] = target: T1, 5-hydroxytryptamine receptor 1A (Homo sapiens, UniProt P08908); test: Displacement of [3H]-[…] from human recombinant 5HT1A receptor expressed in CHO cells after 60 mins by liquid scintillation counting analysis; format: cell-based
T1 sequence (P08908 whole entry): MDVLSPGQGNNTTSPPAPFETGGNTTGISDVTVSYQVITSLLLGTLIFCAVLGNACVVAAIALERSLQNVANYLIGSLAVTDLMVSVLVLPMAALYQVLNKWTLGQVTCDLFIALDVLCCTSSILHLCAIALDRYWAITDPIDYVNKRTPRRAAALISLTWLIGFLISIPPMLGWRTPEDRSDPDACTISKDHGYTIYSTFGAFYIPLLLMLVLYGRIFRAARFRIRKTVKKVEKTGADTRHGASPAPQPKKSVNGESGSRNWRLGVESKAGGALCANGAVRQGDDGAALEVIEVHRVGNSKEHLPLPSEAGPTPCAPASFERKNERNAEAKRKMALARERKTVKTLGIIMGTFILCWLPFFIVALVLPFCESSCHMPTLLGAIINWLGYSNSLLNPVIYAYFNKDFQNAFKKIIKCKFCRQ

[2] = target: T2, 5-hydroxytryptamine receptor 1A (Homo sapiens) (UniProt P08908); test: Displacement of [3H]-[…] from human recombinant 5HT1A receptor expressed in CHO cells assessed as residual activity at 1 uM after 60 mins by liquid scintillation counting analysis; format: cell-based
T2 sequence (whole entry): T1 sequence (P08908 whole entry)

[3] = target: T3, 5-hydroxytryptamine receptor 1A (Rattus norvegicus, UniProt P19327); test: Agonist activity at Wistar rat brain 5HT1A receptor assessed as inhibition of firing rate of dorsal raphe nucleus by electrophysiological analysis; format: tissue-based
T3 sequence (P19327 whole entry): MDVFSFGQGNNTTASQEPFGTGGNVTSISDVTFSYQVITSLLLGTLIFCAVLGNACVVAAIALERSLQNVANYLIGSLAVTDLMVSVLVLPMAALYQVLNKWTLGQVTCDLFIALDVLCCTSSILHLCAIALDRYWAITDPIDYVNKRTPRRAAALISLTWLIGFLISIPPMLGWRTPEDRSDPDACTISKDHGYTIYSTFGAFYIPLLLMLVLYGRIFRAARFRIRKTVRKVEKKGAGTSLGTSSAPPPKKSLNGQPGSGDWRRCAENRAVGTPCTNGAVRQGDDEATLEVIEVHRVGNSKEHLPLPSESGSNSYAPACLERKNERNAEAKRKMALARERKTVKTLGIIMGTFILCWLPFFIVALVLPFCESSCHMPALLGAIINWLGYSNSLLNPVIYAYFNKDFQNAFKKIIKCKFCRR

[4] = target: T4, 5-hydroxytryptamine receptor 1A (Rattus norvegicus) (UniProt P19327); test: Agonist activity at Wistar rat brain 5HT1A receptor assessed as inhibition of firing rate of dorsal raphe nucleus by electrophysiological analysis in presence of WAY-100635; format: tissue-based
T4 sequence (whole entry): T3 sequence (P19327 whole entry)

| Structure (SMILES) | Ki [1] [nM] | further results |
| --- | --- | --- |
| O=C(NCCN1CC=C(c2ccc(F)cc2)CC1)c1cnc2ccccc2n1 | 14 | – |
| Cc1cc(C)cc(C2=CCN(CCN3C(=O)c4ccccc4C3=O)CC2)c1 | 105 | – |
| Cc1ccc(N2CCN(CCNC(=O)c3cnc4ccccc4n3)CC2)cc1 | 27.3 | – |
| O=C1c2ccccc2C(=O)N1CCN1CC=C(c2ccc(F)cc2)CC1 | – | Activity [2]: 76.8% |
| Cc1ccc(C2=CCN(CCNC(=O)c3ccc4ccccc4c3)CC2)cc1 | 31.6 | – |
| O=C(NCCN1CC=C(c2ccccc2)CC1)c1cnc2ccccc2n1 | 3.76 | IC50 [3]: 460 nM; inhibition [4]: inactive |
| O=C(NCCN1CC=C(c2ccc(F)cc2)CC1)c1ccc2ccccc2c1 | 33.5 | – |
| Cc1ccc(C2=CCN(CCNC(=O)c3cnc4ccccc4n3)CC2)cc1 | 7.55 | – |
| O=C(NCCN1CCN(c2ccc(F)cc2)CC1)c1cnc2ccccc2n1 | 63.3 | – |
| O=C(NCCN1CC=C(c2cc(F)cc(F)c2)CC1)c1ccc2ccccc2c1 | 7.29 | – |
| O=C(NCCN1CCN(c2ccc(Cl)cc2)CC1)c1ccc2ccccc2c1 | 50.7 | – |
| O=C1c2ccccc2C(=O)N1CCN1CC=C(c2cc(F)cc(F)c2)CC1 | 425 | – |
| O=C(NCCN1CC=C(c2ccccc2)CC1)c1ccc2ccccc2c1 | 6.1 | – |
| O=C(NCCN1CCN(c2ccccc2)CC1)c1ccc2ccccc2c1 | 24.7 | – |
| Cc1cc(C)cc(C2=CCN(CCNC(=O)c3ccc4ccccc4c3)CC2)c1 | 8.06 | – |
| O=C(NCCN1CC=C(c2cc(F)cc(F)c2)CC1)c1cnc2ccccc2n1 | 2.62 | IC50 [3]: 95 nM; inhibition [4]: inactive |
| O=C(NCCN1CCN(c2ccc(Cl)cc2)CC1)c1cnc2ccccc2n1 | 27 | – |
| O=C1c2ccccc2C(=O)N1CCN1CCN(c2cc(F)cc(F)c2)CC1 | – | Activity [2]: 79.6% |

| Structure (SMILES) | Ki [1] [nM] | further results |
| --- | --- | --- |
| O=C1c2ccccc2C(=O)N1CCN1CC=C(c2ccccc2)CC1 | 706 | – |
| Cc1cc(C)cc(C2=CCN(CCNC(=O)c3cnc4ccccc4n3)CC2)c1 | 1.1 | IC50 [3]: 172 nM; inhibition [4]: inactive |
| Cc1cc(C)cc(N2CCN(CCNC(=O)c3cnc4ccccc4n3)CC2)c1 | 3.67 | IC50 [3]: 383 nM; inhibition [4]: inactive |
| Cc1cc(C)cc(N2CCN(CCNC(=O)c3ccc4ccccc4c3)CC2)c1 | 21 | – |
| O=C(NCCN1CC=C(c2ccc(Cl)cc2)CC1)c1cnc2ccccc2n1 | 9.3 | – |
| O=C1c2ccccc2C(=O)N1CCN1CCN(c2ccc(Cl)cc2)CC1 | – | Activity [2]: 97.4% |
| Cc1ccc(N2CCN(CCNC(=O)c3ccc4ccccc4c3)CC2)cc1 | 221 | – |
| O=C1c2ccccc2C(=O)N1CCN1CC=C(c2ccc(Cl)cc2)CC1 | 631 | – |
| Cc1ccc(C2=CCN(CCN3C(=O)c4ccccc4C3=O)CC2)cc1 | – | Activity [2]: 80% |
| O=C(NCCN1CCN(c2cc(F)cc(F)c2)CC1)c1cnc2ccccc2n1 | 11.1 | IC50 [3]: 1140 nM; inhibition [4]: inactive |
| Cc1cc(C)cc(N2CCN(CCN3C(=O)c4ccccc4C3=O)CC2)c1 | 496 | – |
| O=C(NCCN1CCN(c2ccc(F)cc2)CC1)c1ccc2ccccc2c1 | 54.3 | – |
| O=C(NCCN1CCN(c2ccccc2)CC1)c1cnc2ccccc2n1 | 30 | IC50 [3]: 1680 nM; inhibition [4]: inactive |
| Cc1ccc(N2CCN(CCN3C(=O)c4ccccc4C3=O)CC2)cc1 | – | Activity [2]: 97% |
| O=C1c2ccccc2C(=O)N1CCN1CCN(c2ccc(F)cc2)CC1 | – | Activity [2]: 80.4% |
| O=C(NCCN1CCN(c2cc(F)cc(F)c2)CC1)c1ccc2ccccc2c1 | 28.9 | – |
| O=C1c2ccccc2C(=O)N1CCN1CCN(c2ccccc2)CC1 | – | Activity [2]: 82% |
| O=C(NCCN1CC=C(c2ccc(Cl)cc2)CC1)c1ccc2ccccc2c1 | 42.5 | – |
